The values that follow come from patent US10245261B2, “Substituted indol-5-ol derivatives and their therapeutic applications” (NantBioScience, Inc., priority 2013, dated 2019).

One data set concerns the target GSK3α(h) (Homo sapiens, UniProt P49840). Put plainly: KinaseProfiler kinase assay. It counts as biochemical.
The target of a further data set is CK1γ1(h) (Homo sapiens, UniProt Q9HCP0). Put plainly: KinaseProfiler kinase assay. The class given is biochemical.
For the next data set, the target named is CDK5/p25(h) (Homo sapiens, UniProt Q00535). Nature of the data set: KinaseProfiler kinase assay. The class given is biochemical.
Data set [1] deals with PI3 Kinase (p110α(H1047R)/p85α)(h) (Homo sapiens, UniProt P42336, H1047R). Nature of the data set: KinaseProfiler kinase assay. The class given is biochemical.
For another data set, the target named is MLK1(h) (Homo sapiens, UniProt P80192). Put plainly: KinaseProfiler kinase assay. The class given is biochemical. The method, boiled down:
(§1)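 Using a filter-binding 33P format, reactions initiated by MgATP addition proceeded 40 min at room temperature before a 3% phosphoric acid stop. Filtermats were washed three times in 50 mM phosphoric acid and once in methanol, dried and counted.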

A further data set concerns the target MARK1(h) (Homo sapiens, UniProt Q9P0L2). Nature of the data set: KinaseProfiler kinase assay. The class given is biochemical. The method, boiled down:
as §1

A further data set has as its target PKCμ(h) (Homo sapiens, UniProt Q15139). Nature of the data set: KinaseProfiler kinase assay. It counts as biochemical. The method, boiled down:
as §1

For another data set, the target named is Haspin(h) (Homo sapiens, UniProt Q8TF76). Put plainly: KinaseProfiler kinase assay. The class given is biochemical. Put shortly:
as §1

The target in the next data set is EphA4(h) (Homo sapiens, UniProt P54764). Nature of the data set: KinaseProfiler kinase assay. It counts as biochemical. The method, boiled down: as §1
For a further data set, the target named is IRR(h) (Homo sapiens, UniProt P14616). Put plainly: KinaseProfiler kinase assay. The class given is biochemical. The method, boiled down: as §1
The subject of data set [2] is U251 human CNS tumor xenograft. Nature of the data set: U251 human CNS tumor xenograft model in nude mice. It counts as in vivo, mouse. Conditions: 60 mg/kg intraperitoneal. The procedure: The in vivo anti-tumor efficacy of Compound 53 has been studied using U251 human CNS tumor xenograft model in nude mice (FIG. 16). This was a subcutaneous early stage experiment (defined as a median tumor staging size less than 200 mg). Compound 53 or vehicle control was administered by Intraperitoneal injection for various days with different doses. […] Compound 53 was well tolerated at this doses with maximum body weight lose 3.4%.

Data set [3] has as its system SC LOX IMVI Melanoma Xenografts. Put plainly: SC LOX IMVI Melanoma Xenografts model in nude mice. The class given is in vivo, mouse. Conditions: 50 mg/kg intraperitoneal. The procedure: The in vivo anti-tumor efficacy of Compound 53 has been studied using SC LOX IMVI Melanoma Xenografts model in nude mice (FIG. 76). This was a subcutaneous early stage experiment (defined as a median tumor staging size less than 200 mg). Compound 53 or vehicle control was administered by Intraperitoneal injection for various days with different doses.

Data set [4] concerns FLT3 phosphorylation (pFLT3) of MV4-11 tumors. Nature of the data set: FLT3 phosphorylation in MV4-11 tumor xenografts after oral dosing. The class given is in vivo. The conditions noted are these: Mus musculus, 24 hour after single oral 50 mg/kg. As to the method: (§2) The mice carrying the established MV4-11 tumor xenografts (tumor volume around 150 mm^3) were given an oral dose of 50 mg/kg NTW-3456. At 0, 1, 2, 8, 16, 24 hours after dosing, three were euthanized. The blood samples were collected and plasma was prepared with centrifuge for LCMS assay. And the tumors were harvested, homogenized in lysis buffer, immunoprecipitated with anti-FLT3 antibody FIG. 33.
(§3) The curve (solid dot) is the plot of plasma concentration-time profiles of NTW-3456 after oral administration of 50 mg/kg.

Data set [5] concerns Panc-1 pancreatic carcinoma. Nature of the data set: Panc-1 model of pancreatic carcinoma. It counts as in vivo, mouse. Conditions: with or without Abraxane.
For data set [6], the system named is AN3 human endometrial carcinoma xenograft. Put plainly: Endometrial carcinoma xenograft. The class given is in vivo, mouse.
Data set [7] can be described thus: Plasma concentration after oral dosing in MV4-11 tumor-bearing mice (LCMS). The class given is in vivo. The conditions noted are these: SCID, mouse, 24 hour after single oral 50 mg/kg. As to the method: as §2, §3

CK1γ1(h), sequence (Q9HCP0 whole entry): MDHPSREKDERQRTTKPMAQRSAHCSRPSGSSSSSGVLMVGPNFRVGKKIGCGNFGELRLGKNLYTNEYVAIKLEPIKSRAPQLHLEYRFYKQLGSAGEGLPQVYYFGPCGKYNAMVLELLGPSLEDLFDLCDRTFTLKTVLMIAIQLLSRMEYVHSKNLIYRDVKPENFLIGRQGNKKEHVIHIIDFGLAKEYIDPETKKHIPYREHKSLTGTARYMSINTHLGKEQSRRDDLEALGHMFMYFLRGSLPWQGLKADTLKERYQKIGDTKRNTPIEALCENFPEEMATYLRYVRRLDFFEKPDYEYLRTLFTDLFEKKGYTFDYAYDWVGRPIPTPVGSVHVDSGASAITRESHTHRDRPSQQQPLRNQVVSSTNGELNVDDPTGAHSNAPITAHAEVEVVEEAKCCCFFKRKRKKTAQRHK
MARK1(h), sequence (Q9P0L2 whole entry): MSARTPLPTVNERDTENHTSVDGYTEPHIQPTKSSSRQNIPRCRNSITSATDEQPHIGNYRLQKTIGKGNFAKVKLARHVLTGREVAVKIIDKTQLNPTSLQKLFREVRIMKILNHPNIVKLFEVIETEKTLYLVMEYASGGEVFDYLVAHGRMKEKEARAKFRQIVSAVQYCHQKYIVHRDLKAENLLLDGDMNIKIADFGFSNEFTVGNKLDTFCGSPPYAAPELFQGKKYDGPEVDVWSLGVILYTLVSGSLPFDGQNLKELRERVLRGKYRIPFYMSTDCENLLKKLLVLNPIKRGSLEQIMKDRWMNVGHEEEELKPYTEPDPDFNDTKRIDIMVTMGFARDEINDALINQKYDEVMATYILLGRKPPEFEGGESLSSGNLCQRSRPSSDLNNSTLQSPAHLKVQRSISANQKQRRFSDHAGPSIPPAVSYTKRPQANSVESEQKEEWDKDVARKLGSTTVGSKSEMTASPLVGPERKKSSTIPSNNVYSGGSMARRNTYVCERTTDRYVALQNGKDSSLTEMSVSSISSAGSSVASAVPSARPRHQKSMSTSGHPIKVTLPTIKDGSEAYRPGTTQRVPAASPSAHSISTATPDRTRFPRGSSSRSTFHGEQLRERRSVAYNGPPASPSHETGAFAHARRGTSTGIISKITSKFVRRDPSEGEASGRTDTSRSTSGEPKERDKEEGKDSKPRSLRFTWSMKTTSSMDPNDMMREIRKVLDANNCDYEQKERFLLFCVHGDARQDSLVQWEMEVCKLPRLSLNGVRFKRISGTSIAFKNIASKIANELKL
MLK1(h), sequence (P80192 whole entry): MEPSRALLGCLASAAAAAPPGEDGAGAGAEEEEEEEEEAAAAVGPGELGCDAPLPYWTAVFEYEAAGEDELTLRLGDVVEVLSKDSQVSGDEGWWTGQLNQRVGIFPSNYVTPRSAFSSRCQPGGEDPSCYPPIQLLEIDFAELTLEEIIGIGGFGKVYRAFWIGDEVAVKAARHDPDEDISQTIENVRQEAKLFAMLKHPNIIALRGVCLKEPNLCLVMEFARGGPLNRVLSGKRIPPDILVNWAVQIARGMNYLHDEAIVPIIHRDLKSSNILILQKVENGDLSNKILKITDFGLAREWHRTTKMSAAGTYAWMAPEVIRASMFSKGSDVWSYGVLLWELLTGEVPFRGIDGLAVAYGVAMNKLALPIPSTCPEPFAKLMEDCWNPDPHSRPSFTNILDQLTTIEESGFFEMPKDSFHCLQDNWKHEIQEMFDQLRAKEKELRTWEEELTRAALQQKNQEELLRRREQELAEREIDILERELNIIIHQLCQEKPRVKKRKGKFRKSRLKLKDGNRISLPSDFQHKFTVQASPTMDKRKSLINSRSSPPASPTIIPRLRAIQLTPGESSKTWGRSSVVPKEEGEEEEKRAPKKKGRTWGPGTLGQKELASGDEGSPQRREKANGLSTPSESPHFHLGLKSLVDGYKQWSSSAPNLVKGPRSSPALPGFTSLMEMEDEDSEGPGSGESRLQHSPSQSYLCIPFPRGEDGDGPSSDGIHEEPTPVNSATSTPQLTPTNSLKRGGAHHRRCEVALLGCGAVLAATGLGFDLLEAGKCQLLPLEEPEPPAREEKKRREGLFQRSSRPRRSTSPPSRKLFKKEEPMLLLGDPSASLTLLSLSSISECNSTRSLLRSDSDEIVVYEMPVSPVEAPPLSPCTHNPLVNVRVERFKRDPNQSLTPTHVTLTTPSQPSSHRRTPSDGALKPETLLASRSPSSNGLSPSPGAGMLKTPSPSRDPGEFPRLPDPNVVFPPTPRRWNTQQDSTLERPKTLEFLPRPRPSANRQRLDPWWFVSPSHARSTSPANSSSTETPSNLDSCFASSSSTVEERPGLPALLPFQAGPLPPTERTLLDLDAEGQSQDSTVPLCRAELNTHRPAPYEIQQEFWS
CDK5/p25(h), sequence (Q00535 whole entry): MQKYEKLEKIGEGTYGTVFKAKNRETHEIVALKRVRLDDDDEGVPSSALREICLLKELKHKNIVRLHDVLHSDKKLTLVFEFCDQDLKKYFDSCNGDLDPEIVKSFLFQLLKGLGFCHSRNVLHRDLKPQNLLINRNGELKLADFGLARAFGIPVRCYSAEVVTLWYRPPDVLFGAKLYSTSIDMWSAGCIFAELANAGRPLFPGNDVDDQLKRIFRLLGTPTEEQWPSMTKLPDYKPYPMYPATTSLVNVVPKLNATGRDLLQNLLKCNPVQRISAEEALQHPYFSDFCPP
CDK5/p25(h), sequence (Q15078 99-307 partner): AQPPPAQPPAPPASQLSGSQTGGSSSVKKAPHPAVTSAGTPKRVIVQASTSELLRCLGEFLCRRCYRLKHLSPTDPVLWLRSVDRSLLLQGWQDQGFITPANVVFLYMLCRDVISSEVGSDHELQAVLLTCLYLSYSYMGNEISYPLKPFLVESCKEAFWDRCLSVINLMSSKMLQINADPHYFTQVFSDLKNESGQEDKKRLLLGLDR
IRR(h), sequence (P14616 27-1297): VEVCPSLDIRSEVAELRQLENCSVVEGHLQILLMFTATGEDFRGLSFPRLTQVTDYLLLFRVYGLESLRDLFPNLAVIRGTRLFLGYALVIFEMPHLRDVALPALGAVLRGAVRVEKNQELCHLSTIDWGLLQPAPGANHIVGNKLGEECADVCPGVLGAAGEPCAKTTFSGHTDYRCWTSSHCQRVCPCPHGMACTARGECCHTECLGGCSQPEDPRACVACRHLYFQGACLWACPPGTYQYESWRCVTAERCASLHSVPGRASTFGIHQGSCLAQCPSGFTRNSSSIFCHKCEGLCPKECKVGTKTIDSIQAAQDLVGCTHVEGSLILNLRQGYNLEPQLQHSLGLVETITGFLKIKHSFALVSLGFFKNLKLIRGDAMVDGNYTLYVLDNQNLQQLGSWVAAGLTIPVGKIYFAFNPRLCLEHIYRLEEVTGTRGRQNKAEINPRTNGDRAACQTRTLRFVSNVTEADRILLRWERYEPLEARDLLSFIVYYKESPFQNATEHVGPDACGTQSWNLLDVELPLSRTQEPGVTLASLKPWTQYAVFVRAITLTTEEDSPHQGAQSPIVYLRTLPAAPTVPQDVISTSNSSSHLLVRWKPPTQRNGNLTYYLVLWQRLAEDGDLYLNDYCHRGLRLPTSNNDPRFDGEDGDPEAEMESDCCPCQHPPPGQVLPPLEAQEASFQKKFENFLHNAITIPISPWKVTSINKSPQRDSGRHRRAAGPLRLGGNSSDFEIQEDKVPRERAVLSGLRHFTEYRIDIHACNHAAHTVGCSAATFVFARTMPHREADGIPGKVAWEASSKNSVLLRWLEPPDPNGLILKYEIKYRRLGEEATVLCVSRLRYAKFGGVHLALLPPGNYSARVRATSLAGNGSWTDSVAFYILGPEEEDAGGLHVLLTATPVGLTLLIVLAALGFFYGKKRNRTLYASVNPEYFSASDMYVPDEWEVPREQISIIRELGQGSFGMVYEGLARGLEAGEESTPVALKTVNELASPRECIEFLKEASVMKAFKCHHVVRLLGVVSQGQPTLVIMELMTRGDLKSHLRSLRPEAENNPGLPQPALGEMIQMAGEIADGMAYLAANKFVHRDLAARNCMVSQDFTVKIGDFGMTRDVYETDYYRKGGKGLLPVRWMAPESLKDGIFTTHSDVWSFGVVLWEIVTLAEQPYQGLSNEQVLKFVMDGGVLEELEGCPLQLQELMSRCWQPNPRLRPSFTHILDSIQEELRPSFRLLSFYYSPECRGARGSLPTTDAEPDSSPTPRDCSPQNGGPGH
Haspin(h), sequence (Q8TF76 whole entry): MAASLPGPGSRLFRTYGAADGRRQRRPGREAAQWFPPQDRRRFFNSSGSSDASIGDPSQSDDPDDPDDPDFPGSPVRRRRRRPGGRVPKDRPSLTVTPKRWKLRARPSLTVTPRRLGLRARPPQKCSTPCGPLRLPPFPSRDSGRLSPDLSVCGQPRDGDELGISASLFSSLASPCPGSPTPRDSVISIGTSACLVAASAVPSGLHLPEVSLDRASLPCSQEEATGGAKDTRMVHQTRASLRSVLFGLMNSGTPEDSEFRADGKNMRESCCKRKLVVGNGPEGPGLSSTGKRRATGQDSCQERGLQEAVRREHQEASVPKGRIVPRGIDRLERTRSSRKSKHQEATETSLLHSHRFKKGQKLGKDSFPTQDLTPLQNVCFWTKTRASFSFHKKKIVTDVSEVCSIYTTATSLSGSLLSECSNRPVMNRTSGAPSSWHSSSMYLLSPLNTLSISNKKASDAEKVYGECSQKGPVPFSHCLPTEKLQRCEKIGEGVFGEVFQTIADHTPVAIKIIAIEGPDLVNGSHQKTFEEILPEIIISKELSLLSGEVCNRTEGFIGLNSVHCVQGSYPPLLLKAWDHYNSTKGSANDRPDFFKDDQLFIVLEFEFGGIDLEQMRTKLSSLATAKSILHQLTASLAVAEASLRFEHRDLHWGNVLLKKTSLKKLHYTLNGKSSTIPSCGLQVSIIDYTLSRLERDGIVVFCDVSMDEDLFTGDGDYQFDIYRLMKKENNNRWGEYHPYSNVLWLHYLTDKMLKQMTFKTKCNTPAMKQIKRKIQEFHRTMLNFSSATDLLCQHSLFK

By inhibition is commonly meant the relative decrease from the control value, in per cent. Regarding `Cc1cc2c(F)c(Oc3nc(Nc4cc(C5CC5)[nH]n4)cc(N4CCN(C)CC4)n3)ccc2[nH]1` [Compound 10], the inhibition at 0.1 µM against GSK3α(h) is 28%; on CK1γ1(h), -4%; against CDK5/p25(h), 24%; in [1] it was -8%; against MLK1(h) it was 84%; against MARK1(h), 67%. In addition, the inhibition at 0.1 µM against PKCμ(h) came to 7%; at Haspin(h), 0%; on EphA4(h), 52%; at IRR(h), 91%.

For the compound `Cc1cc2c(F)c(Oc3nc(Nc4cc(C5CC5)[nH]n4)cc(N4CCNCC4)n3)ccc2[nH]1` [Compound 11, N-(5-cyclopropyl-1H-pyrazol-3-yl)-2-((4-fluoro-2-methyl-1H-indol-5-yl)oxy)-6-(piperazin-1-yl)pyrimidin-4-amine], the inhibition at 0.1 µM against GSK3α(h) is 20%; at CK1γ1(h), -10%; against CDK5/p25(h), 26%; in [1], -1%; against MLK1(h), 86%; at MARK1(h), 64%. Also, the inhibition at 0.1 µM was -7% against PKCμ(h), -11% against Haspin(h), 47% against EphA4(h) and 95% against IRR(h).

In the case of `C/C=C/c1cc(Nc2cc(N3CCN(C)CC3)nc(Oc3ccc4[nH]c(C)cc4c3F)n2)n[nH]1` [Compound 53], the “maximum body weight lose” value in data set [2] (Q2Dx3) is 3.4%; in data set [3] (QDx4), 10.3%. Moreover, the “treat/control (T/C)” value in data set [2] (Q2Dx3, day 30) came out at 40%; in data set [3] (QDx4, day 13), 21%.

With `C/C=C/c1cc(Nc2cc(N3CCN(C)CC3)nc(Oc3cc(F)c4[nH]c(C)cc4c3F)n2)n[nH]1` [NTW-3456], in data set [4], the inhibition at 50 mg/kg is more than 60%. In addition, in data set [5], the anti-tumor activity entry is “significant anti-tumor activity”. Moreover, the anti-tumor effect result in [6] was “significant anti-tumor activity”. In [7], the concentration at 24 h stood at 7 nM.
